Tests used:
Progesterone PR (h) = experiment: Binding PR (h) (ag); design: species or system human
Procedure: (§1) Radioligand binding assay methods utilized to measure the activity of compounds of the invention will be familiar to those skilled in the art. In each assay case, the assay components such as, for example, the cell-type, ligand, reference compound and the like, will be familiar to practitioners of such an assay.
(§2) Analysis and Expression of Results: Compounds of the invention were tested in the biochemical assays and percent inhibition of specific binding was determined. The specific ligand binding to the receptors is defined as the difference between the total binding and the nonspecific binding determined in the presence of an excess of unlabelled ligand. The results are expressed as a percent inhibition of control specific binding (100−((measured specific binding/control specific binding)×100)) obtained in the presence of test compounds.

PDE5 (h) (ns) = experiment: Enzyme assay PDE5 (h) (ns); format: biochemical, human
Source text: The enzyme assays provided below will be familiar to those skilled in the art.
Analysis and Expression of Results: The results are expressed as a percent of control specific activity ((measured specific activity/control specific activity)×100) obtained in the presence of the test compounds.

[1] = biological target: T1, Corticotropin Releasing Factor CRF1 (h) (Homo sapiens, UniProt P34998); experiment: Binding CRF1 (h) (ag); conditions: read-out: % Inhibition of Control Specific Binding @ 10 μM
T1 construct: expressed in transfected cells; host or cells: CHO cells
T1 sequence (P34998 24-415): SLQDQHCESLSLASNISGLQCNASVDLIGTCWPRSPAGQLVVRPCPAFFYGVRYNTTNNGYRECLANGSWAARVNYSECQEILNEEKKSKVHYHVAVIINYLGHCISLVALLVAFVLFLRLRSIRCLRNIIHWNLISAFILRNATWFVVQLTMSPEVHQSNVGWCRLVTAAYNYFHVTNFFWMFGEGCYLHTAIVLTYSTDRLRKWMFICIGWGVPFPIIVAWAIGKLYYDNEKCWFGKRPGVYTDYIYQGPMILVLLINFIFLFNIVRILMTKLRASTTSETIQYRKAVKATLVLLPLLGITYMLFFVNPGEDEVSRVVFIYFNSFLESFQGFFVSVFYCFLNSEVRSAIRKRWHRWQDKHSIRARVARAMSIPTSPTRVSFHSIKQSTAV
Procedure: as §1, §2

Androgen Receptor = biological target: T2, Androgen Receptor (Homo sapiens, UniProt P10275); experiment: Androgen Receptor Nuclear Translocation Assay; format: cell-based; conditions: for EC50: agonist mode, PathHunter NHRPro cells, 5 h, read-out: AR Nuclear Translocation Assay Agonist Mode EC50; for IC50: antagonist mode, agonist challenge at EC80, read-out: AR Nuclear Translocation Assay Antagonist Mode IC50
T2 construct: expressed in transfected cells; host or cells: PathHunter NHRPro cell lines
T2 sequence (P10275 1-920): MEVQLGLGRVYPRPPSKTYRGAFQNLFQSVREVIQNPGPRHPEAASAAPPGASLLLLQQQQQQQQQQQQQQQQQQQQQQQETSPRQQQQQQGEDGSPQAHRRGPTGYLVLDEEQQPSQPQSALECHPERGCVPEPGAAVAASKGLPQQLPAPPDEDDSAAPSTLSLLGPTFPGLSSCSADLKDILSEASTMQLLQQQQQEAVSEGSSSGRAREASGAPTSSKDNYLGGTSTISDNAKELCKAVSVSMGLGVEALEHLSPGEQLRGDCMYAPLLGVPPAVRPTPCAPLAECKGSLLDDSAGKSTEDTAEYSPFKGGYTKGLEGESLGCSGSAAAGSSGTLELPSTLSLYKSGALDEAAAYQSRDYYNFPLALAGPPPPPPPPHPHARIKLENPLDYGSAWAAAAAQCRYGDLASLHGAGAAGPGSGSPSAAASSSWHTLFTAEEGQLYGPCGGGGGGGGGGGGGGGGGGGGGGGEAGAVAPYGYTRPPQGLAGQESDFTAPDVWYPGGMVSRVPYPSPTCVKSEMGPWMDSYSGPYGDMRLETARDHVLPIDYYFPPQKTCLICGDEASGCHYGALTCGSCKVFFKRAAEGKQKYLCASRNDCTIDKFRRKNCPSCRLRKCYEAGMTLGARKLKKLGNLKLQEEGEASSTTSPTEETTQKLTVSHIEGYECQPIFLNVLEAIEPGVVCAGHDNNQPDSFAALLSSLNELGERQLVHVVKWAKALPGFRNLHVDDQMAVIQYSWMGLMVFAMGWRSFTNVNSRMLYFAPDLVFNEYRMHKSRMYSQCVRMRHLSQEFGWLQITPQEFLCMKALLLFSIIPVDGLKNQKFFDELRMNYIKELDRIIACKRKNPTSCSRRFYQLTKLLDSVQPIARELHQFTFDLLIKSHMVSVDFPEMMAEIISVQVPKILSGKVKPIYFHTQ
Procedure: Once it was established that the cells were healthy and growing normally, cells were transferred from flasks using trypsin-free cell dissociation buffer and seeded into white walled clear bottom 384-well microplates for compound profiling. For profiling, cells were seeded at a density of 10,000 cells per well in a total volume of 50 μL and were allowed to adhere and recover overnight prior to compound addition. Media contained charcoal-dextran filtered serum to reduce the level of hormones present.
Agonist Format: Intermediate dilution of compound stocks were generated such that 5.5 μL of 10X compound could be added to each well with a final DMSO concentration of 1% of total volume. For profiling compound in agonist mode, the cells were incubated in the presence of compound at 37° C. for 5 h.
Antagonist Format: Agonist dose curves were performed to determine the EC80 value for the following antagonist testing with compounds. 5.5 μL of 10× agonist was added to each well with an equal concentration of vehicle present. EC80 agonist concentration was determined directly from agonist dose curve. For antagonist determination, cells were pre-incubated with antagonist followed by agonist challenge at the EC80 concentration: 5.5 μL of 10× compound added to cells and incubated at 37° C. for 1 h; 5.5 μL of 11× EC80 agonist added to cells and incubated at 37° C. for 5 h.
Signal Detection: After appropriate compound incubation, assay signal was generated through a single addition of 30 μL (50% v/v) of PathHunter Detection reagent cocktail for agonist and antagonist assays respectively followed by 1 h incubation at room temperature. Microplates were read following signal generation with a PerkinElmer ViewLux™ instrument for chemiluminescent signal detection.
Data Analysis: Dose curves in the presence and absence of compound were plotted using GraphPad Prism.

Neurokinin NK1 (h) = biological target: T3, Neurokinin NK1 (h) (Homo sapiens, UniProt P25103); experiment: Binding NK1 (h) (ag); conditions: read-out: % Inhibition of Control Specific Binding @ 10 μM
T3 construct: (endogenous); endogenous in cells; host or cells: U-373MG cells
T3 sequence (P25103 whole entry): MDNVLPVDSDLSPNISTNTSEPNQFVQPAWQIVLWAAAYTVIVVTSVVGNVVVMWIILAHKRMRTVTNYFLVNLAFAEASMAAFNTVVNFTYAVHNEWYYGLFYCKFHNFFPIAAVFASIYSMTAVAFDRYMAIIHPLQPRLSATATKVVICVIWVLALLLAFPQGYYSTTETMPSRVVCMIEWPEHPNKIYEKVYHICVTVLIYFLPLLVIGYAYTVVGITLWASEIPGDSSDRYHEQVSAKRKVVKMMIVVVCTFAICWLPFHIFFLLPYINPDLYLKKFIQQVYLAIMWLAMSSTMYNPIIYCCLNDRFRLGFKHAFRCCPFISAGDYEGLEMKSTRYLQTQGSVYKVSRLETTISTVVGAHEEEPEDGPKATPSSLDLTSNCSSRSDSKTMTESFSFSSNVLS
Procedure: as §1, §2

SMILES | % Inhibition of Control Specific Binding @ 10 μM (Progesterone PR (h)) [%] | % Inhibition of Control Values @ 10 μM (PDE5 (h) (ns)) [%] | inhibition at 10 µM [1] [%] | EC50 (Androgen Receptor) [µM] | IC50 (Androgen Receptor) [µM] | inhibition at 10 µM (Neurokinin NK1 (h)) [%]
CC1(C)C(=O)N(c2ccc(C#N)c(C(F)(F)F)c2)C(=S)N1c1ccc(C(=O)O)c(F)c1 [(MI), 4-(3-(4-cyano-3-(trifluoromethyl)phenyl)-5,5-dimethyl-4-oxo-2-thioxoimidazolidin-1-yl)-2-fluorobenzoic acid] | 23 | 4 | -4 | > 60 | > 60 | -7
CC1(C)C(=O)N(c2ccc(C#N)c(C(F)(F)F)c2)C(=S)N1c1ccc(C(N)=O)c(F)c1 [(MII), 4-(3-(4-Cyano-3-(trifluoromethyl)phenyl)-5,5-dimethyl-4-oxo-2-thioxoimidazolidin-1-yl)-2-fluorobenzamide] | 74 | −1 | 1 | > 60 | 3.2 | 9
CC1(C)C(=O)N(c2ccc(C#N)c(C(F)(F)F)c2)C(=O)N1c1ccc(C(N)=O)c(F)c1 [(MIII), 4-(3-(4-cyano-3-(trifluoromethyl)phenyl)-5,5-dimethyl-2,4-dioxoimidazolidin-1-yl)-2-fluorobenzamide] | 8 | 8 | -9 | > 60 | 16.2 | -9
CNC(=O)c1ccc(N2C(=O)N(c3ccc(C#N)c(C(F)(F)F)c3)C(=O)C2(C)C)cc1F [(MIV), 4-(3-(4-cyano-3-(trifluoromethyl)phenyl)-5,5-dimethyl-2,4-dioxoimidazolidin-1-yl)-2-fluoro-N-methylbenzamide] | 11 | 2 | -23 | > 60 | 11.6 | -7
